Data taken from paper PMC8400955 (Pharmaceuticals, 2021).
Read-outs that look alike come from different tables or passages of the source.

How the values were obtained:
[1] = Single-dose PK and bioavailability of ZB716 in rats; assay type: in vivo; settings: Sprague Dawley, rat, plasma; for bioavailability: PO 6 mg/kg/day vs IV 2 mg/kg/day
[2] = Plasma protein binding by equilibrium dialysis, mouse; assay type: in vitro ADME; settings: plasma (EDTA-K2 as anticoagulant)
Experimental: (§1) The in vitro binding of ZB716 to plasma proteins was determined by equilibrium dialysis technique in mouse, rat, dog, monkey, and human plasma (EDTA-K2 as anticoagulant), over the concentration range of 0.1–10 μM. The free concentration of ZB716 was below the lower limit of quantitation at 0.1, 1, and 10 μM in human, monkey, dog, rat, and mouse plasma.
(§2) The equilibrium dialysis method was used to investigate the in vitro binding of ZB716 to human, monkey, dog, rat, and mouse plasma proteins. The dialysis phosphate buffer solution (100 mM, pH 7.4) and plasma samples containing 0.1, 1, and 10 μM of ZB716 were added to separate chambers of dialysis wells of the HTDialysis device. The dialysis plate was placed in an incubator at 37 °C with 5% CO2 at approximately 100 rpm for 6 h. After incubation, the seal was removed, and 50 μL each of post-dialysis samples was pipetted from both the buffer and plasma chambers into fresh 96-well plates. The samples were analyzed via UPLC–MS/MS. The bound fraction, unbound fraction, recovery (%), and remaining (%) were calculated by Equations (2)–(5):%Unbound = (Conc.buffer chamber/Conc.plasma chamber) × 100(2) %Bound = 100% − %Unbound (3) %Recovery = (Conc.buffer chamber + Conc.plasma chamber)/Conc.Total sample × 100 (4) %Remaining = Conc.6h/Conc.0h × 100 (5)

[3] = system: mouse plasma proteins; test: as above; assay type: in vitro ADME; settings: for Remaining: 6 h
Experimental: as §1, §2

[4] = target: CYP2A6 (Homo sapiens, UniProt P11509); test: CYP phenotyping, recombinant CYP2A6
CYP2A6, sequence (P11509 whole entry): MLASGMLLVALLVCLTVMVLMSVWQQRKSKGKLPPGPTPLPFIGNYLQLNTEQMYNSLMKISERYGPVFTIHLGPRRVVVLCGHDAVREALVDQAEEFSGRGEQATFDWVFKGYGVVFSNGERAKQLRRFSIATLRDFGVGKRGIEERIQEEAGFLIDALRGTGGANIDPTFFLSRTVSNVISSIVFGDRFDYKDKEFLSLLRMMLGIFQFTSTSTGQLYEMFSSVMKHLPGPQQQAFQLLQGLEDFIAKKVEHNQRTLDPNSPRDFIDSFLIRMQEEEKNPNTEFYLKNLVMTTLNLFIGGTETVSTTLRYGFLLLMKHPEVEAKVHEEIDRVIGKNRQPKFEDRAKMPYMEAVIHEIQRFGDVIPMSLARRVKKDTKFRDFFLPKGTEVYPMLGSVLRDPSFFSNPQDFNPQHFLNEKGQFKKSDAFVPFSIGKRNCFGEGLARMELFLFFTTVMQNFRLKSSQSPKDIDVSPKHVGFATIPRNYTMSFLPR
Experimental: Bactosomes prepared from E. coli that heterologously expressed individual human CYP isoforms together with human CYP reductase were obtained from CYPEX LTD (Scotland, UK), and stored at −80 °C prior to use. […] Timepoints were taken at 0, 5, 10, 15, 20, and 30 min. Substrate disappearance was used to calculate intrinsic clearance (Clint) and half-life (t1/2). All incubations were performed in triplicate. […] The chemical inhibitors for CYP1A2, 2A6, 2B6, 2C8, 2C9, 2C19, 2D6, and 3A4 were furafylline, tranylcypromine, ticlopidine, montelukast, sulfaphenazole, N-3-benzylnirvanol, quinidine, and ketoconazole, respectively. Timepoints were collected at 0, 15, 30, 45, and 60 min, and the remaining percentage of the parent drug at each timepoint was calculated (the calculation details are available in the Supplementary Materials). All incubations were performed in triplicate.
1.3.1 Intrinsic Clearance (Heterologously Expressed Human Cytochrome P450) All calculations were carried out using Microsoft Excel. The slope, k, was determined by linear regression of the natural logarithm of percent parent disappearance vs. incubation time curve. Peak areas for test article and internal standard were determined from extracted ion chromatograms. The peak area ratio was used to calculated for the results.
The half-life value (t1/2 rCYPi) was determined from the slope value: […]

[5] = female, single dose, IV 2 mg/kg/day, F
[6] = female, single dose, PO 6 mg/kg/day, F
[7] = female, single dose, PO 30 mg/kg/day, F
[8] = female, single dose, PO 100 mg/kg/day, F
[9] = female, single dose, PO 400 mg/kg/day, F
[10] = male, single dose, IV 2 mg/kg/day, M
[11] = male, single dose, PO 6 mg/kg/day, M
[12] = male, single dose, PO 30 mg/kg/day, M
[13] = male, single dose, PO 100 mg/kg/day, M
[14] = male, single dose, PO 400 mg/kg/day, M

What does the source list for `C[C@]12CC[C@@H]3c4ccc(B(O)O)cc4C[C@@H](CCCCCCCCC[S+]([O-])CCCC(F)(F)C(F)(F)F)[C@H]3[C@@H]1CC[C@@H]2O` (some centres unmarked) [ZB716, fulvestrant-3-boronic acid]?
Tmax ([1]; both sexes, single oral administration, mostly, post-dose, read-out: Tmax): 30 to 120 min; bioavailability ([1]; female, F): 5.98%; AUC(0-t) [1, 5]: 6440 ng·h/mL; Cmax [1, 5]: 4530 ng/mL; Tmax ([1]; female, single dose, IV 2 mg/kg/day, F, read-out: Tmax (median)): 5 min; AUC(0-t) [1, 6]: 1160 ng·h/mL; Cmax [1, 6]: 347 ng/mL; Tmax ([1]; female, single dose, PO 6 mg/kg/day, F, read-out: Tmax (median)): 30 min; AUC(0-t) [1, 7]: 15700 ng·h/mL; Cmax [1, 7]: 3520 ng/mL; Tmax ([1]; female, single dose, PO 30 mg/kg/day, F, read-out: Tmax (median)): 60 min; AUC(0-t) [1, 8]: 30500 ng·h/mL; Cmax [1, 8]: 3590 ng/mL; Tmax ([1]; female, single dose, PO 100 mg/kg/day, F, read-out: Tmax (median)): 30 min; AUC(0-t) [1, 9]: 55600 ng·h/mL; Cmax [1, 9]: 4310 ng/mL; Tmax ([1]; female, single dose, PO 400 mg/kg/day, F, read-out: Tmax (median)): 60 min; bioavailability ([1]; male, M): 6.36%; AUC(0-t) [1, 10]: 4910 ng·h/mL; Cmax [1, 10]: 5370 ng/mL; Tmax ([1]; male, single dose, IV 2 mg/kg/day, M, read-out: Tmax (median)): 5 min; AUC(0-t) [1, 11]: 936 ng·h/mL; Cmax [1, 11]: 321 ng/mL; Tmax ([1]; male, single dose, PO 6 mg/kg/day, M, read-out: Tmax (median)): 30 min; AUC(0-t) [1, 12]: 5410 ng·h/mL; Cmax [1, 12]: 1720 ng/mL; Tmax ([1]; male, single dose, PO 30 mg/kg/day, M, read-out: Tmax (median)): 120 min; AUC(0-t) [1, 13]: 12500 ng·h/mL; Cmax [1, 13]: 3010 ng/mL; Tmax ([1]; male, single dose, PO 100 mg/kg/day, M, read-out: Tmax (median)): 30 min; AUC(0-t) [1, 14]: 32600 ng·h/mL; Cmax [1, 14]: 2860 ng/mL; Tmax ([1]; male, single dose, PO 400 mg/kg/day, M, read-out: Tmax (median)): 30 min; recovery at 6 h, 0.1 μM ([2]; pH 7.4, 0.1 μM): < 96%; recovery at 6 h, 1 μM ([2]; pH 7.4, 1 μM): < 88.8%; recovery at 6 h, 10 μM ([2]; pH 7.4, 10 μM): < 95%; Bound ([3]; 0.1 μM): >97.4%; Unbound ([3]; 0.1 μM): <2.63%; Remaining ([3]; 0.1 μM): 98.5 ± 14.5%; Bound ([3]; 1 μM): >99.7%; Unbound ([3]; 1 μM): <0.266%; Remaining ([3]; 1 μM): 92.2 ± 5.7%; Bound ([3]; 10 μM): >99.97%; Unbound ([3]; 10 μM): <0.0272%; Remaining ([3]; 10 μM): 97.4 ± 10.7%; half-life at 2 µM ([4]; human): 16.6 ± 0.6 min; Clint ([4]; recombinant CYP2A6, 2 µM ZB716): 0.836 ± 0.028 µL/min/pmol CYP
